Test results: patent publication EP1203770A1 (priority 1992, dated 1994)
Like-named read-outs stand apart in the source and are kept apart here.

Target: T1, HIV-1 protease (Human immunodeficiency virus type 1 group M subtype B, UniProt P04585)
T1 construct: The protease (or proteinase), consisting of only 99 amino acids, is among the smallest enzymes known
Test: In vitro HIV protease inhibitory assay (HIV Protease FITC Assay)
Format: biochemical
In short: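 Percent inhibition was read as fluorescence after avidin-bead capture and filtration separated FITC cleavage product from biotinylated substrate. Enzyme and substrate reacted 1 h, RT, dark, at pH 5.5 (0.1 M sodium acetate, 1.0 M NaCl, 0.05% NP-40).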

[1] = HIV-1 Dose 0.123 uM, read-out: HIV-1 Protease % Inhib
[2] = HIV-1 Dose 0.370 uM, read-out: HIV-1 Protease % Inhib
[3] = HIV-1 Dose 1.100 uM, read-out: HIV-1 Protease % Inhib
[4] = HIV-1 Dose 3.300 uM, read-out: HIV-1 Protease % Inhib
[5] = HIV-1 Dose 10.000 uM, read-out: HIV-1 Protease % Inhib
[6] = HIV-1 Dose 30.000 uM, read-out: HIV-1 Protease % Inhib
[7] = read-out: HIV-1 Protease % Inhib

Row | SMILES | inhibition at 0.123 µM [1] | inhibition at 0.37 µM [2] | inhibition at 1.1 µM [3] | inhibition at 3.3 µM [4] | inhibition at 10 µM [5] | inhibition at 30 µM [6] | Ki (read-out: HIV-1 FITC Ki) | other results
1 | CCC(Cc1ccccc1)c1cc(O)c(C(c2cccc(NC(=O)CCn3ccc4ccccc43)c2)C2CC2)c(=O)o1 (stereo not drawn) [Example 230, 3-(α-Cyclopropyl-meta-(3-(1-indolyl)propanoylamino)benzyl)-6-(α-ethylphenethyl)-4-hydroxy-2H-pyran-2-one] | < 10% | 15.3% | 48.6% | 71.3% | 91.1% | 85.3% | – | –
2 | CCC(Cc1ccccc1)c1cc(O)c(C(c2cccc(NC(=O)Cc3ccccn3)c2)C2CC2)c(=O)o1 (stereo not drawn) [Example 231, 3-(α-Cyclopropyl-meta-(2-pyridylacetylamino)benzyl)-6-(α-ethylphenethyl)-4-hydroxy-2H-pyran-2-one] | 16.5% | 57.4% | 77.7% | 98.9% | 113% | 109% | 52.4 nM | –
3 | COCOCc1ccc(C(C2=C(O)CC(CCc3ccccc3)(CC(C)C)OC2=O)C2CC2)s1 (stereo not drawn) [Example 232, 2H-Pyran-2-one, 3-(α-cyclopropyl-[5-(methoxymethoxy-methyl)-thiophen-2-yl]-methyl)-5,6-dihydro-4-hydroxy-6-(2-methylpropyl)-6-(2-phenylethyl)-] | – | – | – | – | – | – | 76 nM | HIV-1 Protease % Inhib (HIV-1 Dose 0.123 uM): 10.57%; HIV-1 Protease % Inhib (HIV-1 Dose 0.370 uM): 36.97%; HIV-1 Protease % Inhib (HIV-1 Dose 1.100 uM): 73.74%; HIV-1 Protease % Inhib (HIV-1 Dose 3.300 uM): 93.56%; HIV-1 Protease % Inhib (HIV-1 Dose 10.000 uM): 103.56%; HIV-1 Protease % Inhib (HIV-1 Dose 30.000 uM): 98.87%
4 | C=CC(C1=C(O)CC(CCc2ccccc2)(CC(C)C)OC1=O)c1ccccc1 (stereo not shown) [Example 233, 2H-Pyran-2-one, 5,6-dihydro-4-hydroxy-6-(2-methylpropyl)-6-(2-phenylethyl)-3-(1-phenyl-2-propenyl)-] | < 10% | 28.9% | 64.9% | 83.1% | 93.7% | 59.4% | 24.8 nM | –
5 | CCC(C1=C(O)CC(CCc2ccccc2)(CC(C)C)OC1=O)c1ccccc1 (stereo not shown) [Example 234, 2H-Pyran-2-one, 5,6-dihydro-4-hydroxy-6-(2-methylpropyl)-6-(2-phenylethyl)-3-(1-phenylpropyl)-] | < 10% | 33.4% | 61.6% | 81.1% | 83% | 71.1% | 39.4 nM | –
6 | O=C1OC(CCc2ccccc2)(CCc2ccccc2)CC(O)=C1C(c1ccccc1)c1ccccc1 [Example 235, 2H-Pyran-2-one, 5,6-dihydro-3-diphenylmethyl4-hydroxy-6,6-di-(2-phenylethyl)-] | < 10% | 13.7% | 33.2% | 61.6% | 73.3% | 80.1% | – | –
7 | O=C1OC(CCc2ccccc2)(CCc2ccccc2)CC(O)=C1C(C=Cc1ccccc1)c1ccccc1 (stereo not shown) [Example 236, 2H-Pyran-2-one, 5,6-dihydro-4-hydroxy-6,6-di-(2-phenylethyl)-3-(1,3-diphenyl-2-propenyl)-] | < 10% | < 10% | 26% | 54.1% | 75.8% | 78.7% | – | –
8 | O=C1OC(CCc2ccccc2)(CCc2ccccc2)CC(O)=C1C(CCc1ccccc1)c1ccccc1 (stereo not shown) [Example 237, 2H-Pyran-2-one, 5,6-dihydro-4-hydroxy-6,6-di-(2-phenylethyl)-3-(1,3-diphenylpropyl)-] | < 10% | 10.2% | 32% | 60.2% | 80.9% | 78.2% | – | –
9 | CCCC1(CCCc2ccccc2)CC(O)=C(C(C=Cc2ccccc2)c2ccccc2)C(=O)O1 (stereo not shown) [Example 238, 2H-Pyran-2-one, 5,6-dihydro-4-hydroxy-3-(1,3-diphenyl-2-propenyl)-6-(3-phenylpropyl)-6-propyl-] | < 10% | 20.5% | 52.8% | 75.6% | 81% | 87.1% | 163 nM | –
10 | CCCC1(CCCc2ccccc2)CC(O)=C(C(CCc2ccccc2)c2ccccc2)C(=O)O1 (stereo not shown) [Example 239, 2H-Pyran-2-one, 5,6-dihydro-4-hydroxy-3-(1,3-diphenylpropyl)-6-(3-phenylpropyl)-6-propyl-] | < 10% | 35.8% | 63.9% | 79.8% | 91% | 85.7% | 99 nM | –
11 | CCCC1(CCc2ccccc2)CC(O)=C(C(c2ccc(COCOC)s2)C2CC2)C(=O)O1 (stereo not drawn) [Example 240, 2H-Pyran-2-one, 3-(α-cyclopropyl-[5-(methoxymethoxy-methyl)-thiophen-2-yl]-methyl)-5,6-dihydro-4-hydroxy-6-(2-phenylethyl)-6-propyl-] | < 10% | 40.6% | 68.7% | 95% | 113% | 104% | 29.2 nM | –
12 | CCCC1(CCCc2ccccc2)CC(O)=C(C(c2ccc(COCOC)s2)C2CC2)C(=O)O1 (stereo not drawn) [Example 241, 2H-Pyran-2-one, 3-(α-cyclopropyl-[5-(methoxymethoxy-methyl)-thiophen-2-yl]-methyl)-5,6-dihydro-4-hydroxy-6-(3-phenylpropyl)-6-propyl-] | < 10% | < 10% | 32.8% | 62.9% | 87.1% | 90.3% | – | –
13 | CCCC1(CCCc2ccccc2)CC(O)=C(C(c2ccccc2)c2ccccc2)C(=O)O1 (stereo not shown) [Example 242, 2H-Pyran-2-one, 5,6-dihydro-3-diphenylmethyl-4-hydroxy-6-(3-phenylpropyl)-6-propyl-] | < 10% | 19.9% | 53.5% | 80.5% | 90.2% | 93.2% | 32.3 nM | –
14 | O=c1oc(C(CC2CC2)CC2CCCOC2)cc(O)c1C(c1ccccc1)C1CC1 (stereo not drawn) [Example 243, 3-(α-Cyclopropylbenzyl)-6-[1-cyclopropylmethyl-2-(tetrahydropyran-3-yl)ethyl]-4-hydroxy-2H-pyran-2-one] | < 10% | 36.2% | 70.5% | 94.7% | 105% | 102% | 69 nM | –
15 | CCS(=O)(=O)Nc1cccc(C(c2c(O)cc(C(CC3CC3)CC3CCCOC3)oc2=O)C2CC2)c1 (stereo not shown) [Example 244] | 20.7% | 57.9% | 81.9% | 90.6% | 103% | 99.4% | 15.4 nM | –
16 | Cc1ccc(S(=O)(=O)Nc2cccc(C(c3c(O)cc(C(CC4CC4)CC4CCCOC4)oc3=O)C3CC3)c2)cc1 (stereo not shown) [Example 245] | 25.9% | 58% | 83.3% | 90.3% | 96.9% | 94.1% | 20.6 nM | –
17 | CCC(Cc1ccccc1)c1cc(O)c(C(c2cccc(NS(=O)(=O)c3ccc(C)cc3)c2)C2CC2)c(=O)o1 (stereo not shown) [Example 246] | 24.7% | 60.1% | 79.9% | 92.3% | 92.7% | 93.3% | 21.6 nM | –
18 | CCC(Cc1ccccc1)c1cc(O)c(C(c2cccc(NS(=O)(=O)CC)c2)C2CC2)c(=O)o1 (stereo not shown) [Example 247] | 14.1% | 47% | 73.1% | 86.7% | 96.1% | 97% | 30.4 nM | –
19 | CCC(Cc1ccccc1)c1cc(O)c(C(c2cccc(NC(=O)Cc3cccnc3)c2)C2CC2)c(=O)o1 (stereo not drawn) [Example 248, 3-(α-Cyclopropyl-meta-(3-pyridylacetylamino)benzyl)-6-(α-ethylphenethyl)-4-hydroxy-2H-pyran-2-one] | < 10% | 31.6% | 63.7% | 86.5% | 101% | 99.2% | 61.7 nM | –
20 | CCC(Cc1ccccc1)c1cc(O)c(C(c2cccc(NC(=O)Cc3ccncc3)c2)C2CC2)c(=O)o1 (stereo not drawn) [Example 249, 3-(α-Cyclopropyl-meta-(4-pyridylacetylamino)benzyl)-6-(α-ethylphenethyl)-4-hydroxy-2H-pyran-2-one] | – | – | – | – | – | – | – | Ki: 44.4 nM; inhibition at 0.123 µM [7]: < 10%; inhibition at 0.37 µM [7]: 40%; inhibition at 1.1 µM [7]: 70.3%; inhibition at 3.3 µM [7]: 88.5%; inhibition at 10 µM [7]: 103%; inhibition at 30 µM [7]: 107%
21 | C=CC(c1ccccc1)c1c(O)cc(C)oc1=O (stereo not shown) [PREPARATION 10, 4-Hydroxy-6-methyl-3-(1'-phenyl-2'-propenyl)-2-pyrone] | – | – | – | – | < 10% | – | – | HIV activity: found to have HIV activity; inhibition at 1 µM (HIV-1 Dose 1.000 uM, read-out: HIV-1 Protease % Inhib): < 10%; inhibition at 100 µM (HIV-1 Dose 100.000 uM, read-out: HIV-1 Protease % Inhib): 43.5%
